Assays:
3T3-L1 cells = assay: adipocyte differentiation induction of 3T3-L1 cells (Oil Red O staining); format: cell-based, mice; conditions: 200 μmol siRNA introduced by Lipofectamine2000 two days before induction of differentiation; compared to a control; FIG. 4
Method: 3T3-L1 cells, which are preadipocytes of mice, were cultivated in Dulbecco's Modified Eagle Medium (DMEM; High Glucose) containing 10% fetal bovine serum (FBS) for 3 days after reaching confluent state. 500 μM of isobutyl-methylxanthine (IBMX), 1 μM of Dexamethasone, and 5 μg/mL of Insulin were added to induce differentiation. At the same time, 10 μM of LS-102 (ubiquitination activity inhibitor of synoviolin) or DMSO was added. After cultivation for 3 days, the medium was replaced with medium containing 4 μg/mL of Insulin and 10 μM of LS-102 or DMSO was added. After cultivation for 3 days, the medium was replaced with DMEM (High Glucose) containing 10% FBS to cultivate for 3 days. For siRNA, 200 μmol of siRNA Syno770 (sense strand consists of the following SEQ ID NO: 2) was introduced by the Lipofectamine2000 two days before induction of differentiation.
After the cultivated 3T3-L1 cells were washed with PBS(−) (Phosphate Buffered Saline solution from which magnesium and calcium had been eliminated), the cells were fixed by 10% formalin. The cells were washed with the PBS(−) to be replaced with 60% isopropanol. After staining for 20 minutes with 18 mg/ml of Oil Red 0 (solvent Isopropanol), the cells were washed with 60% isopropanol and PBS(−) and observed by a microscope.

synoviolin protein = target: T1, synoviolin protein (Homo sapiens, UniProt Q86TM6); conditions: disclosed in Japanese Patent Application Publication No. 2008-74753; cited from earlier work
T1 construct: MBP-Syno ΔTM-His means synoviolin in which transmembrane domain has been deleted
T1 sequence (Q86TM6 246-617 limits assumed): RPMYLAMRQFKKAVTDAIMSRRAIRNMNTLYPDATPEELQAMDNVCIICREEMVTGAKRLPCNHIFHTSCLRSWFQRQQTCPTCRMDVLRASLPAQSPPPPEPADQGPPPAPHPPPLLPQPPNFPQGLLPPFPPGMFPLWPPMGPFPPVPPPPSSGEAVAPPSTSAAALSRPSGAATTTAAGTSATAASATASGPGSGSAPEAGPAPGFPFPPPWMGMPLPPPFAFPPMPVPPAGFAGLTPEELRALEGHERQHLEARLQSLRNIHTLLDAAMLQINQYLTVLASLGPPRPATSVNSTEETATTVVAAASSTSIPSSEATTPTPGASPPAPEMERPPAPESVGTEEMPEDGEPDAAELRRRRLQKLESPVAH

Row | Molecule | differentiation of adipose cells (3T3-L1 cells) | self-ubiquitination of synoviolin protein (synoviolin protein)
1 | 5′ -GCUGUGACAGAUGCCAUCA-3′ [siRNA Syno770] | differentiation has been suppressed | –
2 | CC1=CC(=O)c2c(O)cccc2C1=O [plumbagin, 2-methyl-5-hydroxy-1,4-naphthoquinone] | – | inhibit
3 | O=c1c(O)c(-c2ccc(O)c(O)c2)oc2cc(O)cc(O)c12 [quercetin, 2-(3,4-dihydroxyphenyl)-3,5,7-trihydroxy-4H-1-benzopyrano-4-on] | – | inhibit

From patent publication US20200080091A1, “Methods for Treating Obesity of a Subject Suffering from Obesity” (NAKAJIMA Toshihiro, priority 2012, published 2020)
